Marks after values point to notes of the source that are not given here.
Key:
[1] = tested on: carrageenan-induced hyperalgesic foot withdrawal; assay: Rat carrageenan-induced analgesia test; assay type: in vivo; settings: oral, 3 mpk (footnote *); 3 h after carrageenan
Procedure: The analgesia test using rat carrageenan was performed with materials, reagents and procedures essentially as described by Hargreaves, et al., (Pain, 32, 77 (1988)). Male Sprague-Dawley rats were treated as previously described for the Carrageenan Foot Pad Edema test. Three hours after the injection of the carrageenan, the rats were placed in a special plexiglass container with a transparent floor having a high intensity lamp as a radiant heat source, positionable under the floor. After an initial twenty minute period, thermal stimulation was begun on either the injected foot or on the contralateral uninjected foot. A photoelectric cell turned off the lamp and timer when light was interrupted by paw withdrawal. The time until the rat withdraws its foot was then measured. The withdrawal latency in seconds was determined for the control and drug-treated groups, and percent inhibition of the hyperalgesic foot withdrawal determined.

Murine COX II = molecular target: T1, Murine COX II (Mus musculus, UniProt Q05769); assay: COX II activity in vitro (PGE2 ELISA, recombinant enzyme); assay type: biochemical; settings: arachidonic acid 10 μM, read-out: Murine COX II ID50
T1 construct: coding region of either human or murine COX-I or human or murine COX-II was cloned; made in house; host or cells: SF9 insect cells (baculovirus, pVL1393)
T1 sequence (Q05769 18-604): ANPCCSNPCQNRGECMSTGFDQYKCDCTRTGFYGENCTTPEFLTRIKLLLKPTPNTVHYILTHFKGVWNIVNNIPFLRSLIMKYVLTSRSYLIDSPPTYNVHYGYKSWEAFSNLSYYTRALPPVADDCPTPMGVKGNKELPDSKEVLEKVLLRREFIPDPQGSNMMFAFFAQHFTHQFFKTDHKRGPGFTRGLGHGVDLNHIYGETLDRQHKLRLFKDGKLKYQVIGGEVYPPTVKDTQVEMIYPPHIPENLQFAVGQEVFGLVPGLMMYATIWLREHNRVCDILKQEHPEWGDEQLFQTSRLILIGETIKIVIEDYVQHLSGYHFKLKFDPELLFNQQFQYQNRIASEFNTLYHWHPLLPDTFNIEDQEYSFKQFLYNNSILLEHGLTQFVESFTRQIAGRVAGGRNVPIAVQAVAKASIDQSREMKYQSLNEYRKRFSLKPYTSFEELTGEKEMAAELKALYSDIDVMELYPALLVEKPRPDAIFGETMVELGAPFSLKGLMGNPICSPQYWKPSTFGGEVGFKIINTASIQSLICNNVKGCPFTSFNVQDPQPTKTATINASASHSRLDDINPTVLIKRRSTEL
Procedure: A 2.0 kb fragment containing the coding region of either human or murine COX-I or human or murine COX-II was cloned into a BamH1 site of the baculovirus transfer vector pVL1393 to generate the baculovirus transfer vector. Recombinant baculoviruses were isolated by transfecting 4 μg of baculovirus transfer vector DNA into SF9 cells (2×10e8) along with 200 ng of linearized baculovirus plasmid DNA by the calcium phosphate method. […] The homogenate was centrifuged at 10,000×G for 30 minutes, and the resultant supernatant was stored at −80° C. before being assayed for COX activity.
COX activity was assayed as PGE2 formed/μg protein/time using an ELISA to detect the prostaglandin released. CHAPS-solubilized insect cell membranes containing the appropriate COX enzyme were incubated in a potassium phosphate buffer (50 mM, pH 8.0) containing epinephrine, phenol, and heme with the addition of arachidonic acid (10 μM). […] The PGE2 formed was measured by standard ELISA technology (Cayman Chemical).

IC50 (Murine COX II) [nM] | Compound | ANALGESIA % Inhibition @ 3 mpk [1]
 | CS(=O)(=O)c1ccc(-c2csc(Br)c2-c2ccc(F)cc2)cc1 [Example 2, 4-(4-Methylsulfonylphenyl)-3-(4-fluorophenyl)-2-bromothiophene] | 0* %
< 100 | Cc1cc(F)ccc1-c1cscc1-c1ccc(S(C)(=O)=O)cc1 [Example 15, 3-(4-Methylsulfonylphenyl)-4-(2-methyl-4-fluorophenyl) thiophene] | 
